{
  "source": "paper PMC9516332",
  "about": "(Frontiers in Oncology, 2022)",
  "tested_on": "134 cancer cell lines",
  "assay": "Cell viability assay (ATPlite, 72 hours), IC50 on cancer cell line panel",
  "note": "Where two headings read alike, the source gives them in different places.",
  "data": [
    {"molecule": "Cn1cnc2c(F)c(Nc3ccc(Br)cc3F)c(C(=O)NOCCO)cc21", "note": "[binimetinib]", "values": [
      {"measurement": "IC50", "setting": "HEC-6, read-out: IC50 in cell proliferation assay, HEC-6 cell line (EGFR p.A289V)", "value": "> 31600", "unit": "nM"},
      {"measurement": "IC50", "setting": "Homo sapiens, 769-P, read-out: IC50 in cell proliferation assay, cell line 769-P", "value": 229, "unit": "nM"},
      {"measurement": "IC50", "setting": "Homo sapiens, 786-0, read-out: IC50 in cell proliferation assay, cell line 786-O", "value": "> 31600", "unit": "nM"},
      {"measurement": "IC50", "setting": "Homo sapiens, A 172, read-out: IC50 in cell proliferation assay, cell line A-172", "value": 20000, "unit": "nM"},
      {"measurement": "IC50", "setting": "Homo sapiens, A204, read-out: IC50 in cell proliferation assay, cell line A-204", "value": "> 31600", "unit": "nM"},
      {"measurement": "IC50", "setting": "Homo sapiens, A498, read-out: IC50 in cell proliferation assay, cell line A-498", "value": 53, "unit": "nM"},
      {"measurement": "IC50", "setting": "Homo sapiens, A549, read-out: IC50 in cell proliferation assay, cell line A-549", "value": 92, "unit": "nM"},
      {"measurement": "IC50", "setting": "Homo sapiens, A704, read-out: IC50 in cell proliferation assay, cell line A-704", "value": "> 31600", "unit": "nM"},
      {"measurement": "IC50", "setting": "Homo sapiens, A-375, read-out: IC50 in cell proliferation assay, cell line A-375 (BRAF p.V600E)", "value": 86, "unit": "nM"},
      {"measurement": "IC50", "setting": "Homo sapiens, A-427, read-out: IC50 in cell proliferation assay, cell line A-427", "value": 625, "unit": "nM"},
      {"measurement": "IC50", "setting": "Homo sapiens, ACHN, read-out: IC50 in cell proliferation assay, cell line ACHN", "value": 32, "unit": "nM"},
      {"measurement": "IC50", "setting": "Homo sapiens, AN3-CA, read-out: IC50 in cell proliferation assay, cell line AN3-CA (FGFR2 p.N549K)", "value": 12800, "unit": "nM"},
      {"measurement": "IC50", "setting": "Homo sapiens, ASPC1, read-out: IC50 in cell proliferation assay, cell line AsPC-1", "value": 116, "unit": "nM"},
      {"measurement": "IC50", "setting": "Homo sapiens, AU565, read-out: IC50 in cell proliferation assay, cell line AU565 (ERBB2 amplification)", "value": "> 31600", "unit": "nM"},
      {"measurement": "IC50", "setting": "Homo sapiens, BT-20, read-out: IC50 in cell proliferation assay, cell line BT-20", "value": "> 31600", "unit": "nM"},
      {"measurement": "IC50", "setting": "Homo sapiens, BT-474, read-out: IC50 in cell proliferation assay, cell line BT-474 (ERBB2 amplification)", "value": "> 31600", "unit": "nM"},
      {"measurement": "IC50", "setting": "Homo sapiens, BT-549, read-out: IC50 in cell proliferation assay, cell line BT-549", "value": 8680, "unit": "nM"},
      {"measurement": "IC50", "setting": "Homo sapiens, BXPC-3, read-out: IC50 in cell proliferation assay, cell line BxPC-3", "value": 24, "unit": "nM"},
      {"measurement": "IC50", "setting": "Homo sapiens, C-33-A, read-out: IC50 in cell proliferation assay, cell line C-33 A", "value": 72, "unit": "nM"},
      {"measurement": "IC50", "setting": "Homo sapiens, CAL-27, read-out: IC50 in cell proliferation assay, cell line CAL-27", "value": 117, "unit": "nM"},
      {"measurement": "IC50", "setting": "Homo sapiens, CCF-STTG1, read-out: IC50 in cell proliferation assay, cell line CCF-STTG1", "value": "> 31600", "unit": "nM"},
      {"measurement": "IC50", "setting": "Homo sapiens, CCRF-CEM, read-out: IC50 in cell proliferation assay, cell line CCRF-CEM", "value": "> 31600", "unit": "nM"},
      {"measurement": "IC50", "setting": "Homo sapiens, COLO 205, read-out: IC50 in cell proliferation assay, cell line COLO 205 (BRAF p.V600E)", "value": 31, "unit": "nM"},
      {"measurement": "IC50", "setting": "Homo sapiens, COLO-829, read-out: IC50 in cell proliferation assay, cell line COLO 829 (BRAF p.V600E)", "value": 125, "unit": "nM"},
      {"measurement": "IC50", "setting": "Homo sapiens, DLD-1, read-out: IC50 in cell proliferation assay, cell line DLD-1", "value": 522, "unit": "nM"},
      {"measurement": "IC50", "setting": "Homo sapiens, DU-4475, read-out: IC50 in cell proliferation assay, cell line DU4475 (BRAF p.V600E)", "value": 38, "unit": "nM"},
      {"measurement": "IC50", "setting": "Homo sapiens, Daoy, read-out: IC50 in cell proliferation assay, cell line Daoy", "value": 3980, "unit": "nM"},
      {"measurement": "IC50", "setting": "Homo sapiens, DoTc2-4510, read-out: IC50 in cell proliferation assay, cell line DoTc2 4510", "value": 113, "unit": "nM"},
      {"measurement": "IC50", "setting": "Homo sapiens, EOL1, read-out: IC50 in cell proliferation assay, cell line EoL-1 (FIP1L1-PDGFRA)", "value": 82, "unit": "nM"},
      {"measurement": "IC50", "setting": "Homo sapiens, FaDu, read-out: IC50 in cell proliferation assay, cell line FaDu", "value": 47, "unit": "nM"},
      {"measurement": "IC50", "setting": "Homo sapiens, G-361, read-out: IC50 in cell proliferation assay, cell line G-361 (BRAF p.V600E)", "value": 144, "unit": "nM"},
      {"measurement": "IC50", "setting": "Homo sapiens, HCC827, read-out: IC50 in cell proliferation assay, cell line HCC827 (EGFR exon19del)", "value": 268, "unit": "nM"},
      {"measurement": "IC50", "setting": "Homo sapiens, HCC4006, read-out: IC50 in cell proliferation assay, cell line HCC4006 (EGFR exon19del)", "value": 26600, "unit": "nM"},
      {"measurement": "IC50", "setting": "Homo sapiens, HCT-15, read-out: IC50 in cell proliferation assay, cell line HCT 15", "value": 1070, "unit": "nM"},
      {"measurement": "IC50", "setting": "Homo sapiens, HCT-116, read-out: IC50 in cell proliferation assay, cell line HCT 116", "value": 525, "unit": "nM"},
      {"measurement": "IC50", "setting": "Homo sapiens, HEC-1, read-out: IC50 in cell proliferation assay, HEC-1 cell line", "value": "> 31600", "unit": "nM"},
      {"measurement": "IC50", "setting": "Homo sapiens, HEC-1B, read-out: IC50 in cell proliferation assay, HEC-1-B cell line (EGFR p.A864V)", "value": 12, "unit": "nM"},
      {"measurement": "IC50", "setting": "Homo sapiens, HL-60, read-out: IC50 in cell proliferation assay, HL-60 cell line", "value": 5, "unit": "nM"},
      {"measurement": "IC50", "setting": "Homo sapiens, HT, read-out: IC50 in cell proliferation assay, HT cell line", "value": "> 31600", "unit": "nM"},
      {"measurement": "IC50", "setting": "Homo sapiens, HT-1080, read-out: IC50 in cell proliferation assay, HT-1080 cell line", "value": 27, "unit": "nM"},
      {"measurement": "IC50", "setting": "Homo sapiens, Hs746T, read-out: IC50 in cell proliferation assay, Hs 746.T cell line (MET exon14skip + amplification)", "value": 12500, "unit": "nM"},
      {"measurement": "IC50", "setting": "Homo sapiens, Hs-578T, read-out: IC50 in cell proliferation assay, Hs 578T cell line", "value": 143, "unit": "nM"},
      {"measurement": "IC50", "setting": "Homo sapiens, HuTu80, read-out: IC50 in cell proliferation assay, HuTu 80 cell line", "value": 3320, "unit": "nM"},
      {"measurement": "IC50", "setting": "Homo sapiens, J82, read-out: IC50 in cell proliferation assay, J82 cell line", "value": 200, "unit": "nM"},
      {"measurement": "IC50", "setting": "Homo sapiens, Jurkat E6.1, read-out: IC50 in cell proliferation assay, Jurkat E6.1 cell line", "value": "> 31600", "unit": "nM"},
      {"measurement": "IC50", "setting": "Homo sapiens, K562, read-out: IC50 in cell proliferation assay, K-562 cell line", "value": 383, "unit": "nM"},
      {"measurement": "IC50", "setting": "Homo sapiens, KATO III, read-out: IC50 in cell proliferation assay, KATO III cell line (FGFR2 amplification)", "value": 5400, "unit": "nM"},
      {"measurement": "IC50", "setting": "Homo sapiens, KG-1, read-out: IC50 in cell proliferation assay, KG-1 cell line (FGFR1OP2-FGFR1)", "value": 404, "unit": "nM"},
      {"measurement": "IC50", "setting": "Homo sapiens, KLE, read-out: IC50 in cell proliferation assay, KLE cell line", "value": "> 31600", "unit": "nM"},
      {"measurement": "IC50", "setting": "Homo sapiens, KMS-11, read-out: IC50 in cell proliferation assay, KMS-11 cell line (FGFR3 p.Y373C)", "value": "> 31600", "unit": "nM"},
      {"measurement": "IC50", "setting": "Homo sapiens, KU812, read-out: IC50 in cell proliferation assay, Ku812 cell line", "value": 30, "unit": "nM"},
      {"measurement": "IC50", "setting": "Homo sapiens, Kasumi 1, read-out: IC50 in cell proliferation assay, Kasumi-1 cell line (KIT p.N822K)", "value": 192, "unit": "nM"},
      {"measurement": "IC50", "setting": "Homo sapiens, LC-2-ad, read-out: IC50 in cell proliferation assay, LC-2/ad cell line (CCDC6-RET)", "value": 84, "unit": "nM"},
      {"measurement": "IC50", "setting": "Homo sapiens, LNCaP-Clone-FGC, read-out: IC50 in cell proliferation assay, LNCaP clone FGC cell line", "value": "> 31600", "unit": "nM"},
      {"measurement": "IC50", "setting": "Homo sapiens, LS174T, read-out: IC50 in cell proliferation assay, LS174T cell line", "value": 70, "unit": "nM"},
      {"measurement": "IC50", "setting": "Homo sapiens, LS-411N, read-out: IC50 in cell proliferation assay, LS411N cell line (BRAF p.V600E)", "value": 61, "unit": "nM"},
      {"measurement": "IC50", "setting": "Homo sapiens, LoVo, read-out: IC50 in cell proliferation assay, LoVo cell line", "value": 23, "unit": "nM"},
      {"measurement": "IC50", "setting": "Homo sapiens, MCF7, read-out: IC50 in cell proliferation assay, MCF-7 cell line", "value": "> 31600", "unit": "nM"},
      {"measurement": "IC50", "setting": "Homo sapiens, MDA-MB-231, read-out: IC50 in cell proliferation assay, MDA-MB-231 cell line", "value": 1010, "unit": "nM"},
      {"measurement": "IC50", "setting": "Homo sapiens, MDA-MB-453, read-out: IC50 in cell proliferation assay, MDA-MB-453 cell line", "value": "> 31600", "unit": "nM"},
      {"measurement": "IC50", "setting": "Homo sapiens, MDA-MB-468, read-out: IC50 in cell proliferation assay, MDA-MB-468 cell line", "value": 64, "unit": "nM"},
      {"measurement": "IC50", "setting": "Homo sapiens, MG-63, read-out: IC50 in cell proliferation assay, MG-63 cell line", "value": 2220, "unit": "nM"},
      {"measurement": "IC50", "setting": "Homo sapiens, MIA PaCa-2, read-out: IC50 in cell proliferation assay, MIA PaCa-2 cell line", "value": 140, "unit": "nM"},
      {"measurement": "IC50", "setting": "Homo sapiens, MKN-45, read-out: IC50 in cell proliferation assay, MKN45 cell line (MET amplification)", "value": 1150, "unit": "nM"},
      {"measurement": "IC50", "setting": "Homo sapiens, MOLM-13, read-out: IC50 in cell proliferation assay, MOLM-13 cell line (FLT3 ITD)", "value": 1030, "unit": "nM"},
      {"measurement": "IC50", "setting": "Homo sapiens, MOLT-4, read-out: IC50 in cell proliferation assay, MOLT-4 cell line", "value": "> 31600", "unit": "nM"}
    ]}
  ]
}
